Read-outs that look alike come from different tables or passages of the source. Ends that are not written are not given here.
Tests used:
[1] = system: Sirtuin 1; settings: cited from earlier work
[2] = system: human leukemia U937 cells; parameters: method as in PMID 18348515; settings: cited from earlier work
[3] = target: T1, human SIRT1 (Homo sapiens, UniProt Q96EB6); experiment: Thermal shift assay (TSA) of Sirtuin 1 in the presence of NAD+; type: binding; settings: for ΔTm, additional TSA experiment: with NAD+, n = 4; for ΔTm at 10 µM: n = 1, read-out: TSA(with NAD+) Primary screening (TSA) delta Tm (K)
T1 construct: host or cells: Escherichia coli M15
T1 sequence (Q96EB6 with tags, fused parts or gaps): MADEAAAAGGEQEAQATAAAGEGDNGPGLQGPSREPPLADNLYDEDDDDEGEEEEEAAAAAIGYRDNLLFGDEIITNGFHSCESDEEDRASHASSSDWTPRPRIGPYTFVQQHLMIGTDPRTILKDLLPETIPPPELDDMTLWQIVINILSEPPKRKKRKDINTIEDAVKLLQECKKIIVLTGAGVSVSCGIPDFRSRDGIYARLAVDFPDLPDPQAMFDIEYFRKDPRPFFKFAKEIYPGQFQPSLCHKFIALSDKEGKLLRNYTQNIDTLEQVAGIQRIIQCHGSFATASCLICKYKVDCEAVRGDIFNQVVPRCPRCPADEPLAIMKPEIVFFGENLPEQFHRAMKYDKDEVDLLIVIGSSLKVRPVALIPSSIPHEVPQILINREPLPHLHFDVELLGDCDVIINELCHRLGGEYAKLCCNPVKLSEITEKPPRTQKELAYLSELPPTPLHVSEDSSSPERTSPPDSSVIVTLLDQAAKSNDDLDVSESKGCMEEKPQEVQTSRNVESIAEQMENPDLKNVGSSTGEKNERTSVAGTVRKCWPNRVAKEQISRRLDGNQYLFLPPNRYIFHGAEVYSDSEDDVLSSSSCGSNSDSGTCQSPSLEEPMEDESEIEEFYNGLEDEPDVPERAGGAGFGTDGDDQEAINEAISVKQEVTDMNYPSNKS
Procedure: (§1) A total of 3,192 compounds extracted from the proposed lists were first screened by thermal shift assay (TSA), which determined a melting temperature shift (ΔTm) of Sirtuin 1 upon the addition of a test compound at a concentration of 10 µM (n = 1) with primary hit criteria of ΔTm > 0.45 K or ΔTm < −1.5 K. Primary hits (48 compounds) were retested in the same assay at three concentrations (5, 10, 20 µM, n = 4) for hit confirmation and for dose-dependency check. Secondary hits (41 compounds) were checked their selectivity for Sirtuin 1 based on counterscreening on unrelated protein targets (bovine carbonic anhydrase (CA) and recombinant SH2 domain of hABL1 kinase (ABL1)) at three different concentrations (5, 10, 20 µM, n = 4), which yielded 38 hit compounds, hereafter referred to as TSA hits. The TSA screening above was conducted in the absence of NAD^+. As noted, the structure of Sirtuin 1 is different in the presence of NAD^+ and substrate. The chemical profile of TSA hits found from the different conditions could be different. […] As a result, 39 TSA hits were found. Regardless of the presence of NAD^+, 29 compounds were shared in both TSA hits.
(§2) Table S1. Buffer concentrations used for preparing buffer composition matrix screening plates.
(§3) Buffer Plate 1 (mM) Plate 2 (mM)
(§4) Selection of the optimal buffer composition was based on balancing several criteria including undistorted protein melting curve, maximized melting temperature stability of SIRT1 protein and maximized melting temperature shift induced by the acetylated histone H3K9 peptide (KQTARK(Ac)STGG, a natural substrate of SIRT1). Thermal shift experiments were done at 120 µM H3K9 in the presence of 500 µM NAD+, a co-factor of SIRT1. Separate additions of H3K9 or […]
result, the buffer consisting of 20 mM Tris-HCl pH 8 and 50 mM NaCl was selected for the screening. Purified SIRT1 protein was pre-mixed with SYPRO Orange dye (Thermo Fischer Scientific, Cat. S6650, 5000x stock) to prepare a master mix at 400 µg/mL protein and 10x dye concentration. Tested compounds were added to the protein-dye master mix at 10 µM (1% final DMSO concentration) and incubated for 1 h at 4 °C in MicroAmp® optical 384-well reaction plates (ThermoFisher, Cat. 4309849) sealed with optical sealing film (ThermalSeal RT2, Excel Scientific, Cat. TS-RT2). The volumes of all reaction mixtures were 10 µL (4 µg SIRT1 per well). The reaction plates were then kept at ambient temperature (22-24 °C) for additional 15 minutes to ensure protein-compound interactions. Thermal scanning was performed by raising temperature to 35 °C at 1.6 °C/min without signal detection followed by 35 °C to 75 °C temperature ramp at 0.05 °C/s with constant fluorescence intensity reading at 1 sec intervals using EX470/EM623 nm filter set. Primary screening of the whole test set of 3,192 compounds was carried out in singletons. The raw data of dye fluorescence intensity change upon protein melt were exported using the ViiA7 RUO software (Applied Biosystems/ThermoFischer Scientific). Further data visualization, curve fitting, melting temperature calculations on the raw fluorescence data were performed using custom-made Microsoft Excel scripts developed by us. The peak of the first derivative for the fluorescence curve was used to define melting temperature (Tm). Averaged Tm values for the control wells (64 wells per plate), containing only the protein, dye and 1% DMSO were used as a reference point to determine melting temperature shifts (ΔTm). Hit selection criteria was ΔTm > 0.45 °C or ΔTm < −1.5 °C. All primary hits were re-tested in the same assay at 3 concentrations (20, 10 and 5 µM, n = 4) for hit confirmation

[4] = target: T1, human SIRT1; experiment: SIRT-Glo luminogenic enzymatic inhibitory assay (inhibition rate and IC50); type: biochemical
Procedure: Note that the inhibitory assay was conducted with NAD^+.
Biochemical enzymatic assay for SIRT1
Luminogenic SIRT-Glo™ assay kit was purchased from Promega Corp. (Madison, WI; USA,
Enzymatic activity of SIRT1 in the presence of test compounds
the SIRT-Glo™ assay according to the manufacturer’s instructions (Promega Technical Manual for
SIRT-Glo™ Assay and Screening System). Briefly, the enzymatic reactions were performed in assay
SIRT1 was added to 3 ng/µL concentration to the wells containing tested compounds diluted in the
DMSO concentration) and the reactions (9 µL per well) were pre-incubated for 30 min at ambient
The enzymatic reactions were started by adding 9 µL of SIRT-Glo™
reagent (proprietary composition undisclosed by the vendor) to each assay well.
vigorous mixing using VibraTranslator (Union Scientific, USA) to ensure homogeneity, the plate
was incubated at the ambient temperature for 40 min. The final reaction volumes per well of a
384-well plate were 18 µL (1.5 ng/µL SIRT1: 20 nM). Luminescence signals were measured using
Omega PolarStar microplate reader (BMG Labtech, Ortenberg, Germany). Luminescence values
from the control plate wells with no added enzyme were used as a baseline.
The eight-point IC50 curve was built using 3x serial dilution
Primary compound dilutions were performed
in DMSO and each concentration was tested in quadruplicate. Assay data was analyzed in GraphPad
Prism,6 using Prism's built-in sigmoidal dose-response curve-fit algorithm and default settings of the
fit. Each error bar represents a standard deviation (SD) of inhibition rates for each concentration.
Dose-response curve (DRC) for SIRT1 inhibition by 20 compounds under SIRT-Glo™
assay conditions described in Section C of this supporting information. The determined IC50 value
The eight-point IC50 curves were built using 3x serial
dilution starting from compound concentration of 100 μM. Primary compound dilutions were
performed in DMSO and each concentration was tested in quadruplicate. Assay data was analyzed in
GraphPad Prism,6 using Prism's built-in sigmoidal dose-response curve-fit algorithm and default
Each bar represents a standard deviation (SD) of inhibition rates for each concentration.

[5] = target: T1, human SIRT1; experiment: Thermal shift assay (TSA) of Sirtuin 1 without NAD+; type: binding; parameters: TSA(without NAD+) Primary screening (TSA) TmD (K): unit not given here; settings: for ΔTm, additional TSA experiment: n = 4; for thermal shift in SIRT1 melting curves, separate additions: separate additions of H3K9 (120 µM) or NAD+ (500 µM)
Procedure: as §1
B. Setup and validation of Protein Thermal Shift Assay.
All tested compounds were obtained from the screening compound collection of Enamine Ltd.
(Kiev, Ukraine). Stock solutions of the tested compounds were prepared at 10 mM in 100% DMSO and were stored at −20 °C until use. All thermal shift assay (TSA) experiments with SIRT1 protein were performed using ViiA™7 real-time PCR System equipped with 384-well heat block (Applied Biosystems, USA). General TSA methodology was adopted from the literature3-5 and experimentally modified in order to optimize conditions for measuring SIRT1 melting temperature shifts upon interaction with small molecules. To define the optimal buffer composition for the TSA procedure, a matrix of common buffers combined on a 96-well plate (Figure S3) was tested in thermal melt experiment on a 384-well plate (each buffer composition in quadruplicate). In addition, each buffer composition shown on Figure S3 was tested at two different buffering component concentrations, as listed in Table S1, resulting in two 384-well plate buffer screening experiments and the total of 192 different buffer compositions tested.
Figure S3. Matrix plate of the buffer compositions assessed for TSA optimization.
(1 picture or pasted object on this page, not shown here)
as §2, §3, §4
result, the buffer consisting of 20 mM Tris-HCl pH 8 and 50 mM NaCl was selected for the screening. Purified SIRT1 protein was pre-mixed with SYPRO Orange dye (Thermo Fischer Scientific, Cat. S6650, 5000x stock) to prepare a master mix at 400 µg/mL protein and 10x dye concentration. Tested compounds were added to the protein-dye master mix at 10 µM (1% final DMSO concentration) and incubated for 1 h at 4 °C in MicroAmp® optical 384-well reaction plates (ThermoFisher, Cat. 4309849) sealed with optical sealing film (ThermalSeal RT2, Excel Scientific, Cat. TS-RT2). The volumes of all reaction mixtures were 10 µL (4 µg SIRT1 per well). The reaction plates were then kept at ambient temperature (22-24 °C) for additional 15 minutes to ensure protein-compound interactions. Thermal scanning was performed by raising temperature to 35 °C at 1.6 °C/min without signal detection followed by 35 °C to 75 °C temperature ramp at 0.05 °C/s with […]

[6] = system: bovine carbonic anhydrase (CA); experiment: TSA counterscreening on unrelated protein, carbonic anhydrase; type: binding; settings: for ΔTm CA: without NAD+
Procedure: as §1

[7] = target: T2, recombinant SH2 domain of hABL1 kinase (ABL1) (Homo sapiens, UniProt P00519); experiment: TSA counterscreening on unrelated protein, ABL1 SH2 domain; type: binding; settings: without NAD+
T2 construct: recombinant SH2 domain of hABL1 kinase (ABL1)
T2 sequence (P00519 127-217 limits assumed): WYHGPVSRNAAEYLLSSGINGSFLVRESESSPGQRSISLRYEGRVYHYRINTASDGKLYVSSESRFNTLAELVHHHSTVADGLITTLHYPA
Procedure: as §1

[8] = final Sirtuin 1 concentration 20 nM, n = 4, read-out: IC50
[9] = 10 μM, without NAD+, read-out: ΔTm Sirtuin 1
[10] = 10 µM, n = 1, read-out: TSA(without NAD+) Primary screening (TSA) delta Tm (K)

## O=C1/C(=C/c2cc(Br)c(O)c(Br)c2)CCC/C1=C\c1cc(Br)c(O)c(Br)c1 [CHEMBL260149]
[1]; 25 μM
  Inh. rate@25 μM: 0.95 (Inh. rate@25 μM: 50%)[57]
[2]
  effect on apoptosis induction and granulocytic differentiation: high differentiating activity

## O=C(CNC(=O)c1nc(-c2ccccc2)no1)Nc1ccccc1 [CHEMBL449117]
[1]; 200 μM
  Inhibition rate@200 μM: 0.64 (Inhibition rate@200 μM: 28%)[69]

## CC1(C)CC(=O)C2=C(C1)N(NC(=O)c1ccncc1)C1=C(C(=O)CC(C)(C)C1)C2c1ccccc1OCc1ccccc1 [CHEMBL1762050]
[1]; 50 μM
  Inh. rate@50 μM: 0.60 (Inh. rate@50 μM = 70%)[71]

## CCNc1ncnc2cc(C(N)=O)sc12 [CHEMBL2332048]
[1]
  IC50: > 50 µM

## COc1ccc(CNCc2c(-c3nnc(SC(C)C)n3-c3ccccc3)n(C)c3ccc(F)cc23)cc1 [CHEMBL2436120]
[1]; 40 μM
  Inh. rate@40 μM: 0.65 (Inh. rate@40 μM: 70%)[70]

## CC(C)(C)NS(=O)(=O)c1ccc2c(c1)Nc1ccccc1CC2 [CHEMBL3222149]
[1]; 100 μM
  Inh. rate@100 μM: 0.65 (Inh. rate@100 μM = 10%)[72]

## COc1ccc(NC(=O)CSc2nnc(Nc3ccc(SC(F)F)cc3)s2)cc1OC [Compound Z21813138]
[3]
  ΔTm, additional TSA experiment: 0.32 K
[4]; [8]
  IC50: 7.7 µM

## O=C1/C(=C\c2cc(Br)cc(Br)c2O)CC/C1=C\c1cc(Br)cc(Br)c1O [Compound Z56773446]
[5]; without NAD+
  ΔTm at 5 µM: 0.4 °C
  ΔTm at 20 µM: 1 °C
[5]; [9]
  ΔTm at 10 µM: 0.6 °C
[3]
  ΔTm, additional TSA experiment: −0.05 K
[6]; 5 μM
  ΔTm CA: 0.2 K
[6]; 10 μM
  ΔTm CA: 0.5 K
[6]; 20 μM
  ΔTm CA: 0.5 K
[7]
  ΔTm at 5 µM: 0 °C
  ΔTm at 10 µM: 0.1 °C
  ΔTm at 20 µM: 0.2 °C
[4]; [8]
  IC50: 4.1 µM

## O=C1NC(=S)NC(=O)C1=Cc1cn(-c2ccccc2)nc1-c1cc2ccccc2o1 [Compound Z62466600]
[5]; without NAD+
  ΔTm at 5 µM: 0.2 °C
  ΔTm at 20 µM: 0.5 °C
  ΔTm, additional TSA experiment: 0.87 K
[5]; [9]
  ΔTm at 10 µM: 0.3 °C
[6]; 5 μM
  ΔTm CA: 0.0 K
[6]; 10 μM
  ΔTm CA: 0.0 K
[6]; 20 μM
  ΔTm CA: 0.0 K
[7]
  ΔTm at 5 µM: -0.2 °C
  ΔTm at 10 µM: 0.1 °C
  ΔTm at 20 µM: 0 °C
[4]
  IC50: 7.1 µM

## O=C1NC(=O)c2ccccc2/C1=C\NNC(=O)C12CC3CC(CC(C3)C1)C2 [Compound Z165047618]
[5]; without NAD+
  ΔTm, additional TSA experiment: −0.03 K
[4]; final Sirtuin 1 concentration 30 nM (compounds marked *), n = 4, read-out: IC50
  IC50: 13 µM

## Cc1nc(-c2ccc(CCNC(=O)c3ccc(NC(=O)c4cccs4)cc3)s2)cs1 [Compound Z165049452]
[4]; [8]
  IC50: 12 µM

## NCc1nc2c(cnn2-c2ccccc2)c(=O)[nH]1 [Compound Z235344735]
[4]; [8]
  IC50: 7.6 µM

## Cc1ccc(C(=O)Nc2nc3ccc(NS(=O)(=O)c4ccc5c(c4)CCC(=O)N5)cc3s2)s1 [Compound Z605844126]
[4]; [8]
  IC50: 15 µM

## Cc1ccc(C(CNC(=O)c2ccc(C(N)=O)cc2)N2CCCC2)o1 (stereo not shown) [Compound Z1001367730]
[5]; 10 µM, n = 1
  TSA(without NAD+) Primary screening (TSA) TmD (K): 49.64
[5]; [10]
  ΔTm at 10 µM: -0.08 °C
[3]
  ΔTm at 10 µM: -0.11 °C

## CC(Nc1ccc2nnnn2n1)c1ccc(Oc2ccccc2)cc1 (stereo not shown) [Compound Z1002316132]
[5]; 10 µM, n = 1
  TSA(without NAD+) Primary screening (TSA) TmD (K): 49.54
[5]; [10]
  ΔTm at 10 µM: -0.05 °C
[3]
  ΔTm at 10 µM: 0.09 °C

## O=c1[nH]c2ccc(S(=O)(=O)NCc3cc4ccccc4[nH]3)cc2[nH]1 [Compound Z1003449802]
[5]; 10 µM, n = 1
  TSA(without NAD+) Primary screening (TSA) TmD (K): 49.54
[5]; [10]
  ΔTm at 10 µM: -0.07 °C
[3]
  ΔTm at 10 µM: 0.68 °C
[6]; combined verdict on CA and Abl SH2, TSA flow with NAD+
  TSA(with NAD+) Counter Screening (Carbonic anhydrase AND Abl kinase SH2 domain) Good/Bad: Bad

## NC(=O)c1ccc[n+]([C@@H]2O[C@H](COP(=O)([O-])OP(=O)(O)OC[C@H]3O[C@@H](n4cnc5c(N)ncnc54)[C@H](O)[C@@H]3O)[C@@H](O)[C@H]2O)c1 [NAD+, nicotinamide adenine dinucleotide]
[5]
  thermal shift in SIRT1 melting curves, separate additions: did not cause any thermal shift

## histone H3K9 peptide: acetylated histone H3K9 peptide (KQTARK(Ac)STGG, a natural substrate of SIRT1) (UniProt P68431 5-14, looked up, fragment) [reference compound]
[5]
  thermal shift in SIRT1 melting curves, separate additions: did not cause any thermal shift
[3]; 120 µM H3K9 in the presence of 500 µM NAD+
  Peptide induced thermal shift: +1.2 °C

From publication PMC6925144, “A prospective compound screening contest identified broader inhibitors for Sirtuin 1” (Scientific Reports, 2019)
